According to ChEMBL document CHEMBL1629524, “2-Azetidinone--a new profile of various pharmacological activities” (Eur J Med Chem, 2010):
Converted amounts (≈) assume the structure as drawn. Each block holds one molecule with its values, some of them ahead of it.

Key:
Pseudomonas aeruginosa = assay: Antimicrobial activity against Pseudomonas aeruginosa ATCC 10145; assay type: functional
Chymase = biological target: T1, Chymase (Homo sapiens, UniProt P23946); assay: Inhibition of human Chymase
T1 sequence (P23946 whole entry): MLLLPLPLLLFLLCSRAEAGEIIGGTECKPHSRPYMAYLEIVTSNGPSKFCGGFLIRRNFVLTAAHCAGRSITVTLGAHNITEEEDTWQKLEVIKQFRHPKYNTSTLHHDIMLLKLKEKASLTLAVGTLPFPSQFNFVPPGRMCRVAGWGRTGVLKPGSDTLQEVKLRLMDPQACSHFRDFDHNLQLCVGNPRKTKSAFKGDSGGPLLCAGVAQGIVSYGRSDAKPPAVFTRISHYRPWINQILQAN

[1] = Chemical stability of the compound in human plasma assessed as half life; assay type: ADME, cell-free
[2] = biological target: 72 kDa type IV collagenase (Homo sapiens, UniProt P08253); assay: Inhibition of MMP2
Rhesus monkey = assay: Antidyslipidemic activity in cholesterol-fed rhesus monkey assessed as reduction in plasma cholesterol; assay type: functional; conditions: Macaca mulatta
Hamster [3] = assay: Antidyslipidemic activity in cholesterol-fed hamster model assessed as reduction in liver cholesteryl esters; assay type: functional; conditions: Cricetinae
Canis familiaris = organism: Canis familiaris; assay: Antidyslipidemic activity in cholesterol-fed Dog assessed as reduction in plasma cholesterol level; assay type: functional; conditions: Canis lupus familiaris
Neutrophil elastase = biological target: T2, Neutrophil elastase (Homo sapiens, UniProt P08246); assay: Inhibition of human leukocyte elastase
T2 sequence (P08246 whole entry): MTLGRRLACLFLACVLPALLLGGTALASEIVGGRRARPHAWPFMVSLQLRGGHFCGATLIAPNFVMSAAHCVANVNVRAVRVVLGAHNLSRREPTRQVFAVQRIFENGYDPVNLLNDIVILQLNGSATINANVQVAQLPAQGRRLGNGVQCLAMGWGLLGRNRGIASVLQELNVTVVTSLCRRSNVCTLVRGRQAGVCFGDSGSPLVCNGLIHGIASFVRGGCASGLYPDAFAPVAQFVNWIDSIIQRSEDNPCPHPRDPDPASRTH

Hamster [4] = assay: Antidyslipidemic activity in hamster assessed as reduction in hepatic cholesteryl esters; assay type: functional; conditions: Cricetinae
Hamster [5] = assay: Antidyslipidemic activity in cholesterol-fed hamster assessed as reduction in plasma cholesterol; assay type: functional; conditions: Cricetinae
Rattus norvegicus = organism: Rattus norvegicus; assay: Antidyslipidemic activity in cholesterol-fed rat assessed as reduction in plasma cholesterol; assay type: functional
[6] = Antidyslipidemic activity in rat hepatic microsomes assessed as inhibition of […]; assay type: functional, Liver
HepG2 = assay: Antidyslipidemic activity in human HepG2 cells assessed as inhibition of cholesterol esterification; assay type: functional, cell-based
Caco-2 = assay: Antidyslipidemic activity in human Caco2 cells assessed as inhibition of cholesterol esterification; assay type: functional, cell-based
[7] = Inhibition of human Tryptase
[8] = Inhibition of human cytomegalovirus protease; design: species or system Human betaherpesvirus 5
[9] = Inhibition of bovine brain tubulin polymerization; design: species or system Bos taurus

Chain of 72 kDa type IV collagenase (P08253 whole entry): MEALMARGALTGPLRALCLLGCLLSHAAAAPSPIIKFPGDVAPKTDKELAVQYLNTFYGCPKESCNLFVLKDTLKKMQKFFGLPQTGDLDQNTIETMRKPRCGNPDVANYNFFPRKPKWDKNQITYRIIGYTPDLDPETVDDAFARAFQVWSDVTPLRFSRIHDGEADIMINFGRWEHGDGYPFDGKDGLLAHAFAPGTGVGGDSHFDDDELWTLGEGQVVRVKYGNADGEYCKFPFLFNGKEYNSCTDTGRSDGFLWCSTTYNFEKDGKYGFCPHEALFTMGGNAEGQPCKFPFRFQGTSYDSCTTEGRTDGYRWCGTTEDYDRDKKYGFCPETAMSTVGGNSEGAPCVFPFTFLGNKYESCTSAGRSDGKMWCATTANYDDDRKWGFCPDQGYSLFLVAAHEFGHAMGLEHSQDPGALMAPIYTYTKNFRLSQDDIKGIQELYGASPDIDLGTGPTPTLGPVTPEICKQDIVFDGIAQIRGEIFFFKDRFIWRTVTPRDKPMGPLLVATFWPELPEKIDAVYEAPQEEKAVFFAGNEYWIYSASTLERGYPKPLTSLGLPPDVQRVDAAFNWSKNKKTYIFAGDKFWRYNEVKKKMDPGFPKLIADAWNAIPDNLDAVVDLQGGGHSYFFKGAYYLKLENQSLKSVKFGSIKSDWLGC

SMILES: CCOC(=O)/C=C1\NC(=O)[C@@H]1[C@@H](C)OC(=O)c1cc(OCc2ccccc2)c(O)c(OCc2ccccc2)c1
- IC50 [2]: 4000 nM

SMILES: O=C1[C@H](CC[C@H](O)c2ccc(F)cc2)[C@@H](c2ccc(O)cc2)N1c1ccc(F)cc1 [EZETIMIBE]
- ED50 (Rhesus monkey): 0.5 µg/kg
- ED50 (Hamster [3]): 0.04 mg/kg/day
- ED50 (Canis familiaris): 0.007 mg/kg/day

SMILES: CCOC(=O)/C=C1\[C@@H](C(C)O[Si](C)(C)C(C)(C)C)C(=O)N1C(=O)c1cc(OCc2ccccc2)c(OCc2ccccc2)c(OCc2ccccc2)c1 (stereo partly specified)
- IC50 (Neutrophil elastase): 500 nM

SMILES: O=C(O)[C@@H]1[C@@H](CCC2CCCNC2)C(=O)N1C(=O)N1CCN(C(=O)CCCCCc2ccccc2)CC1 (stereo partly specified)
- IC50 [7]: 1.8 nM

SMILES: CC(C)(C)NC(=O)N1CCN(C(=O)N2C(=O)[C@H](CCCN=C(N)N)[C@H]2C(=O)O)CC1
- IC50 [7]: 4 nM

SMILES: N=C(N)N1CCC[C@H](C[C@H]2C(=O)N(C(=O)N3CCN(C(=O)CCCCCc4ccccc4)CC3)[C@@H]2C(=O)O)C1
- IC50 [7]: < 1.7 nM

SMILES: N=C(N)N1CCC[C@@H](C[C@H]2C(=O)N(C(=O)N3CCN(C(=O)CCCCCc4ccccc4)CC3)[C@@H]2C(=O)O)C1
- IC50 [7]: < 1.7 nM

SMILES: CC[C@@H](NC(=O)N1C(=O)CC1SC[C@H](CC(C)C)NC(=O)[C@@H](NC(=O)CC(C)(C)C)C(C)(C)C)c1ccccc1 (stereo partly specified)
- IC50 [8]: 70 nM

Further lines, with some results ahead:

- MIC (Pseudomonas aeruginosa): 125 µg/mL (≈ 355 µM)
SMILES: COc1ccc(C2N(c3ccc(OC)cc3)C(=O)C2(Cl)Cl)cc1 (stereo unspecified)

- IC50 (Chymase): 3.1 nM
- half-life [1]: 6 h
SMILES: CCOc1ccccc1C[C@@H]1C(=O)N(C(=O)NC(c2ccccc2)c2ccccc2)[C@@H]1Oc1ccc(C(=O)O)cc1

- MIC (Pseudomonas aeruginosa): 125 µg/mL (≈ 390 µM)
SMILES: Cc1ccc(C2N(c3ccc(C)cc3)C(=O)C2(Cl)Cl)cc1 (stereo unspecified)

- IC50 (Chymase): 0.46 nM
SMILES: C[C@@H](NC(=O)N1C(=O)[C@@H](Cc2ccccc2)[C@H]1Oc1ccc(N2CCN(C)CC2)cc1)c1ccccc1

- MIC (Pseudomonas aeruginosa): 125 µg/mL (≈ 346 µM)
SMILES: O=C1N(c2ccc(Cl)cc2)C(c2ccc(Cl)cc2)C1(Cl)Cl (stereo unspecified)

- IC50 [6]: 26000 nM
- IC50 (HepG2): 22000 nM
- IC50 (Caco-2): 32000 nM
SMILES: COc1ccc([C@@H]2[C@@H](CCCc3ccccc3)C(=O)N2c2ccc(OC)cc2)cc1 [SCH-48461]
- ED50 (Hamster [4]): 2 mg/kg/day
- ED50 (Hamster [5]): 1 mg/kg/day
- ED50 (Rattus norvegicus): 2 mg/kg/day
- ED50 (Rhesus monkey): 0.2 mg/kg/day

- MIC (Pseudomonas aeruginosa): 125 µg/mL (≈ 371 µM)
SMILES: O=C1N(c2ccccc2)C(c2ccc([N+](=O)[O-])cc2)C1(Cl)Cl (stereo unspecified)

- IC50 [9]: 5000 nM
SMILES: COc1ccc(C2C(O)C(=O)N2c2ccccc2)cc1N (stereo unspecified)

- MIC (Pseudomonas aeruginosa): 125 µg/mL (≈ 428 µM)
SMILES: O=C1N(c2ccccc2)C(c2ccccc2)C1(Cl)Cl (stereo unspecified)
